From patent US10233180B2, “Substituted nitrogen-containing heterocyclic derivatives, pharmaceutical compositions comprising the same and applications of antitumor thereof” (ZHEJIANG UNIVERSITY, priority 2014, dated 2019) come the findings set out here.

The test system of assay [1] is human colon cancer cell strain HCT-116. The experiment in a line: MTT assay, inhibition of tumor cell growth in vitro, 72 h. As to conditions: Homo sapiens, HCT-116, MTT, read-out: Antitumor proliferative activities of tumor cell (IC50, μM) HCT-116 (converted). The assay is classed as cell-based. An outline of the steps:
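Cells in RPMI 1640 with FBS, 4000 cells/well, exposed 72 h at 37 °C, 5% CO2 to final 50, 10, 2, 0.4 and 0.08 μM; 1% DMSO blank. MTT OD gives % inhibition versus control; IC50 derived by Bliss method.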
(Tetrazolium assays rely on reduction of a dye to a coloured formazan, in cell work by metabolically active cells.)

Assay [2] concerns the target T1, Akt1 (Homo sapiens, UniProt P31749).
T1 construct: purchased 32-021
The assay can be described thus: AKT1/PKBα KinEASE FP Fluorescein Green Assay (fluorescence polarization kinase kit). The assay is classed as biochemical. Particulars: 1 h reaction, read-out: Inhibitory activities against Akt1 (IC50). An outline of the steps: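 FP competition kinase assay: compounds (50 μM stock) with STK Substrate 3 and ATP, 1 h reaction at room temperature; stopped with stop/antibody mix, 4 h at room temperature, then polarization read. Inhibition derived from polarization values; IC50 calculated; triplicate wells.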
On the technique in general: Polarisation of emitted light reports the rotation of a fluorescent probe.

Assay [3] deals with Human ovarian cancer cell strain OVCAR-8. The experiment in a line: MTT assay, inhibition of tumor cell growth in vitro, 72 h. The assay is classed as cell-based. Particulars: Homo sapiens, OVCAR-8, MTT, read-out: Antitumor proliferative activities of tumor cell (IC50, μM) OVCAR-8. An outline of the steps: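 OVCAR8 cells in RPMI 1640 plus FBS were seeded at 4000 cells/well and exposed for 72 h at 37 °C to compound at 50, 10, 2, 0.4 and 0.08 μM final, with 1% DMSO as blank. Inhibition was calculated from OD relative to control, and IC50 was derived by the Bliss method.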

T1 sequence (P31749 whole entry): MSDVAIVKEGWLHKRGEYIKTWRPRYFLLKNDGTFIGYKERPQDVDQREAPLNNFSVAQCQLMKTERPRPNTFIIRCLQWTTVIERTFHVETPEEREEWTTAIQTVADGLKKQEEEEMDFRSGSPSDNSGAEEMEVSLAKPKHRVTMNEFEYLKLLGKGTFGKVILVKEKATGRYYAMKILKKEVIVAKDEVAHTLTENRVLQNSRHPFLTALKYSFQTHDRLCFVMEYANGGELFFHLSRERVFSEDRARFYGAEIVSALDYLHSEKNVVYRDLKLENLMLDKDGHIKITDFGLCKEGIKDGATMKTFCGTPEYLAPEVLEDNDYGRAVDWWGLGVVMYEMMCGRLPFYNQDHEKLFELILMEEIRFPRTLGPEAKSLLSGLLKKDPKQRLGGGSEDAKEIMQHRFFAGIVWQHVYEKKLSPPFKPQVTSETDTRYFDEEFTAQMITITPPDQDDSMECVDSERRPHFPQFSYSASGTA

Usually IC50 stands for the point on the concentration scale where inhibition reaches its midpoint. Regarding `CCCC1C[C@@H](c2ccc(Cl)c(Cl)c2)[C@H](NC(=O)c2cc(-c3c(Cl)cnn3C)c(Cl)o2)CN1` (stereo partly drawn) [Compound 130, 5-chloro-4-(4-chloro-1-methyl-1H-pyrazol-5-yl)-N-((3S,4S)-4-(3,4-dichlorophenyl)-6-propylpiperidin-3-yl)furan-2-formamide], the IC50 is 4.1 µM in assay [1], 0.5 nM in assay [2] and 1.06 µM in assay [3].

For the molecule `Cn1ncc(Cl)c1-c1coc(C(=O)N[C@H]2CNCC[C@@H]2c2ccc(F)c(F)c2)c1` (racemic) [Compound 25, 4-(4-chloro-1-methyl-1H-pyrazol-5-yl)-N-(3,4-trans-4-(3,4-difluorophenyl)piperidin-3-yl)furan-2-formamide], the IC50 in assay [1] is 3.19 µM; in assay [2] it was 238 nM; in assay [3], 21.4 µM.

Turning to `Cn1ncc(Cl)c1-c1cc(C(=O)N[C@@H]2CNC(CCNCC(O)CO)C[C@H]2c2ccc(Cl)c(Cl)c2)oc1Cl` (stereo partly drawn) [Compound 123, 5-chloro-4-(4-chloro-1-methyl-1H-pyrazol-5-yl)-N-((3S,4S)-4-(3,4-dichlorophenyl)-6-(2-((2,3-dihydroxypropyl)amido)ethyl)piperidin-3-yl)furan-2-formamide], the IC50 in assay [1] is 0.07 µM; in assay [2] it was 0.1 nM; in assay [3], 0.09 µM.

`Cn1ncc(Cl)c1-c1ccc(C(=O)N[C@@H]2CNCC[C@H]2c2c[nH]c3ccccc23)cc1Cl` [Compound 89, N-((3S,4S)-4-(1H-indol-3-yl)piperidin-3-yl)-3-chloro-4-(4-chloro-1-methyl-1H-pyrazol-5-yl)benzamide]: the IC50 in assay [1] is 1.02 µM; in assay [2], 11 nM; in assay [3], 5.69 µM.

Turning to `Cn1ncc(Cl)c1-c1cc(C(=O)N[C@H]2CNCC[C@@H]2c2ccccc2)oc1Cl` (racemic) [Compound 29, 5-chloro-4-(4-chloro-1-methyl-1H-pyrazol-5-yl)-N-(3,4-trans-4-phenylpiperidin-3-yl)furan-2-formamide], the IC50 in assay [1] was 8.67 µM; in assay [2], 62 nM; in assay [3], 1.12 µM.

As to `Cn1ncc(Cl)c1-c1ccc(C(=O)N[C@@H]2CNCC[C@H]2c2cccc(F)c2)cc1N` [Compound 79, 3-amido-4-(4-chloro-1-methyl-1H-pyrazol-5-yl)-N-((3S,4S)-4-(3-fluorophenyl)piperidin-3-yl)benzamide], the figures for the IC50 in assay [1], in assay [2] and in assay [3] were 4.08 µM, 19 nM and 3.77 µM, respectively.

Turning to `Cn1ncc(Br)c1-c1coc(C(=O)N[C@H]2CNCC[C@@H]2c2ccc(F)c(F)c2)c1` (racemic) [Compound 28, 4-(4-bromo-1-methyl-1H-pyrazol-5-yl)-N-(3,4-trans-4-(3,4-difluorophenyl)piperidin-3-yl)furan-2-formamide], the values for the IC50 in assay [1], in assay [2] and in assay [3] were 11.8 µM, 62 nM and 3.38 µM, respectively.

As to `Cn1ncc(Cl)c1-c1cc(C(=O)N[C@@H]2CNC(CCn3cncn3)C[C@H]2c2ccc(Cl)c(Cl)c2)oc1Cl` (stereo partly drawn) [Compound 122, N-((3S,4S)-6-(2-(1H-1,2,4-triazol-1-yl)ethyl)-4-(3,4-dichlorophenyl)piperidin-3-yl)-5-chloro-4-(4-chloro-1-methyl-1H-pyrazol-5-yl)furan-2-formamide], the concentration for half-maximal inhibition (IC50) was 1.02 µM in assay [1], 2 nM in assay [2] and 0.43 µM in assay [3].

`Cn1ncc(Cl)c1-c1cc(C(=O)N[C@@H]2CNC(CCO)C[C@H]2c2ccc(Cl)c(Cl)c2)oc1Cl` (stereo partly drawn) [Compound 113, 5-chloro-4-(4-chloro-1-methyl-1H-pyrazol-5-yl)-N-((3S,4S)-4-(3,4-dichlorophenyl)-6-(2-hydroxyethyl)piperidin-3-yl)furan-2-formamide]: the half-maximal inhibitory concentration (IC50) in assay [1] is 1.72 µM; in assay [2], 3 nM; in assay [3], 0.14 µM.

`Cn1ncc(Br)c1-c1ccc(C(=O)N[C@@H]2CNCC[C@H]2c2cccc(F)c2)s1` [Compound 147, 5-(4-bromo-1-methyl-1H-pyrazol-5-yl)-N-((3S,4S)-4-(3-fluorophenyl)piperidin-3-yl)thiophene-2-formamide]: the 50% inhibitory concentration (IC50) in assay [1] was 0.36 µM; in assay [2], 9 nM; in assay [3], 2.43 µM.

As for `Cn1ncc(Br)c1-c1csc(C(=O)N[C@H]2CNCC[C@@H]2c2ccc(F)c(F)c2)c1` [Compound 41, 4-(4-bromo-1-methyl-1H-pyrazol-5-yl)-N-((3R,4R)-4-(3,4-difluorophenyl)piperidin-3-yl)thiophene-2-formamide], the IC50 is 4.06 µM in assay [1], 452 nM in assay [2] and 9.43 µM in assay [3].

`Cn1ncc(Cl)c1-c1cc(C(=O)N[C@@H]2CNC(CCN3CCCCC3)C[C@H]2c2ccc(Cl)c(Cl)c2)oc1Cl` (stereo partly drawn) [Compound 108, 5-chloro-4-(4-chloro-1-methyl-1H-pyrazol-5-yl)-N-((3S,4S)-4-(3,4-dichlorophenyl)-6-(2-(piperidin-1-yl)ethyl)piperidin-3-yl)furan-2-formamide]: the IC50 in assay [1] was 0.57 µM; in assay [2], 9 nM; in assay [3] it was 2.04 µM.

As for `CCc1cnn(C)c1-c1ccc(C(=O)N[C@@H]2CNCC[C@H]2c2cccc(F)c2)s1` [Compound 145, 5-(4-ethyl-1-methyl-1H-pyrazol-5-yl)-N-((3S, 4S)-4-(3-fluorophenyl)piperidin-3-yl)thiophene-2-formamide], the IC50 in assay [1] is 1.47 µM; in assay [2] it was 4 nM; in assay [3], 1.06 µM.

In the case of `CCc1cc(C(=O)N[C@@H]2CNCC[C@H]2c2ccc(C(F)(F)F)cc2)cnc1-c1c(Br)cnn1C` [Compound 64, 5-ethyl-6-(4-bromo-1-methyl-1H-pyrazol-5-yl)-N-((3S,4S)-4-(4-trifluoromethylphenyl)piperidin-3-yl)pyridinyl-3-formamide], the IC50 in assay [1] was 22.6 µM; in assay [2], 256 nM; in assay [3], 1.62 µM.

Take `Cn1ncc(Br)c1-c1csc(C(=O)N[C@H]2CNCC[C@@H]2c2ccc(F)c(F)c2)c1` (racemic) [Compound 38, 4-(4-bromo-1-methyl-1H-pyrazol-5-yl)-N-(3,4-trans-4-(3,4-difluorophenyl)piperidin-3-yl)thiophene-2-formamide]: the IC50 is 1.94 µM in assay [1], 409 nM in assay [2] and 4.69 µM in assay [3].

On to `Cn1ncc(C(=O)O)c1-c1ccc(C(=O)N[C@@H]2CNCC[C@H]2c2cccc(F)c2)s1` [Compound 142], for which the values for the IC50 in assay [1], in assay [2] and in assay [3] were 3.09 µM, 2 nM and 1.62 µM, respectively.

Turning to `CCc1c(-c2ncnn2C)c(Br)n(C)c1C(=O)N[C@H]1CNCC[C@@H]1c1cccc(C(F)(F)F)c1` (racemic) [Compound 4, 5-bromo-3-ethyl-1-methyl-4-(1-methyl-1H-1,2,4-triazol-5-yl)-N-(3,4-trans-4-(3-trifluoromethylphenyl)piperidin-3-yl)-1H-pyrrole-2-formamide], the IC50 is 15.6 µM in assay [1], 48 nM in assay [2] and 5.19 µM in assay [3].

Turning to `CNC(=O)CC1C[C@@H](c2ccc(F)c(F)c2)[C@H](NC(=O)c2ccc(-c3c(Cl)cnn3C)s2)CN1` (stereo partly drawn) [Compound 152, 5-(4-chloro-1-methyl-1H-pyrazol-5-yl)-N-((3S,4S)-4-(3,4-difluorophenyl)-6-(2-(methylamido)-2-oxoethyl)piperidin-3-yl)thiophene-2-formamide], the IC50 in assay [1] is 2.82 µM; in assay [2], 0.6 nM; in assay [3], 1.41 µM.

For `Cn1ncc(Cl)c1-c1cc(C(=O)N[C@@H]2CNC(CCN3CCOCC3)C[C@H]2c2ccc(Cl)c(Cl)c2)oc1Cl` (stereo partly drawn) [Compound 109, 5-chloro-4-(4-chloro-1-methyl-1H-pyrazol-5-yl)-N-((3S,4S)-4-(3,4-dichlorophenyl)-6-(2-(morpholin-1-yl)ethyl)piperidin-3-yl)furan-2-formamide], the IC50 in assay [1] was 0.78 µM; in assay [2], 9 nM; in assay [3] it was 1.3 µM.

For the molecule `CCc1sc(C(=O)N[C@H]2CNCC[C@@H]2c2cnc3c(c2)CCC(C)C3)cc1-c1c(C(C)C)cnn1C` (stereo partly drawn) [Compound 14, 5-ethyl-4-(4-isopropyl-1-methyl-1H-pyrazol-5-yl)-N-(3,4-trans-4-(7-methyl-5,6,7,8-tetrahydroquinolin-3-yl)piperidin-3-yl)thiophene-2-formamide], the IC50 in assay [1] was 3.78 µM; in assay [2] it was 5 nM; in assay [3] it was 3.68 µM.

Consider `Cc1occc1-c1cc(-c2c(Cl)cnn2C)ccc1C(=O)N[C@@H]1CNCC[C@H]1c1cccc(F)c1` [Compound 88, 4-(4-chloro-1-methyl-1H-pyrazol-5-yl)-N-((3S,4S)-4-(3-fluorophenyl)piperidin-3-yl)-2-(2-methylfuran-3-yl)benzamide], for which the results for the IC50 in assay [1], in assay [2] and in assay [3] were 4.21 µM, 8 nM and 1.07 µM, respectively.

With `Cn1ncc(Cl)c1-c1ccc(C(=O)N[C@@H]2CNCC[C@H]2c2ccc(Cl)cc2)cc1C#N` [Compound 76, 4-(4-chloro-1-methyl-1H-pyrazol-5-yl)-N-((3S,4S)-4-(4-chlorophenyl)piperidin-3-yl)-3-cyanobenzamide], the values for the concentration for half-maximal inhibition (IC50) in assay [1], in assay [2] and in assay [3] were 1.56 µM, 21 nM and 2.54 µM, respectively.
